pKi: −log10 of the molar value.

System in the first test: not given
Experiment: not given
As to conditions: phase II trial; altered behaviour, delusion, hallucinations, extreme emotions, excited motor activity, incoherent speech; cited from earlier work.
For `CC(=O)N(C)C1(c2ccccc2)CCN(CCC[C@]2(c3ccc(Cl)c(Cl)c3)CCCN(C(=O)c3ccccc3)C2)CC1` [SR 142,801, Osanetant], the “activity on positive symptoms of schizophrenia” value is recorded as “active”.

Still in this test, the particulars now being: phase II trial; depression, anhedonia, social isolation, memory and attention deficits; cited from earlier work.
Regarding `CC(=O)N(C)C1(c2ccccc2)CCN(CCC[C@]2(c3ccc(Cl)c(Cl)c3)CCCN(C(=O)c3ccccc3)C2)CC1` [SR 142,801, Osanetant], the “activity in the treatment of negative symptoms of schizophrenia” value was “inactive”.

The next test has as its target T1, human NK3 receptor (Homo sapiens, UniProt P29371).
T1 construct: expressed in transfected cells; host or cells: HEK293 cells (transient expression), membrane preparation
T1 sequence (P29371 1-465): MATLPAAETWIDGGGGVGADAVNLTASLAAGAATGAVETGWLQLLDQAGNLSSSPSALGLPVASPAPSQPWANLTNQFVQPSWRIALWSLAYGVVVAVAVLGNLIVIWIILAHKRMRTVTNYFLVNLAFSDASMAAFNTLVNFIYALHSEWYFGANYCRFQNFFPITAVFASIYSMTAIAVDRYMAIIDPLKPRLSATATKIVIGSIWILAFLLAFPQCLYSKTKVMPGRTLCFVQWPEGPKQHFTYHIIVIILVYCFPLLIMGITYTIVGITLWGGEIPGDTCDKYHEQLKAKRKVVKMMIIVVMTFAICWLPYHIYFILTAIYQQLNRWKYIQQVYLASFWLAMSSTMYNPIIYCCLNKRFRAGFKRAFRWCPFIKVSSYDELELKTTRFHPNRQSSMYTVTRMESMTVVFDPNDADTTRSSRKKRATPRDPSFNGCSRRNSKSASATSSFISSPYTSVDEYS
The test is described as follows: [3H]SR142801 competition binding assay. As to conditions: hNK3 receptor binding, [3H]SR142801, membranes from HEK293 cells transiently expressing recombinant human NK3 receptor. The essentials:
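Membranes from HEK293 cells transiently expressing human NK3 were incubated 75 min at RT with [3H]SR142801 at its KD and inhibitor (0.0003-10 μM) in Tris-HCl pH 7.4/MnCl2/phosphoramidon/BSA. Nonspecific binding used 10 μM SB222200. Ki from Hill-fitted IC50 via Cheng-Prusoff, duplicate determinations.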
As to `CN(Cc1ccc(C(F)(F)F)c(F)c1)[C@H]1CN(C(=O)CN2CCC(N3CCOCC3=O)CC2)C[C@@H]1c1ccc(Cl)c(Cl)c1` (racemic) [Example 145, 4-[1-(2-{(3SR,4RS)-3-(3,4-Dichloro-phenyl)-4-[(3-fluoro-4-trifluoromethyl-benzyl)-methyl-amino]-pyrrolidin-1-yl}-2-oxo-ethyl)-piperidin-4-yl]-morpholin-3-one], the pKi is 7.86. On the same count and under the same terms, the figure for `CN(Cc1ccc(C(F)(F)F)c(F)c1)[C@H]1CN(C(=O)CN2CCC(N3CCCCC3=O)CC2)C[C@@H]1c1ccc(Cl)c(Cl)c1` (racemic) [Example 146, 1′-(2-{(3SR,4RS)-3-(3,4-Dichloro-phenyl)-4-[(3-fluoro-4-trifluoromethyl-benzyl)-methyl-amino]-pyrrolidin-1-yl}-2-oxo-ethyl)-[1,4′]bipiperidinyl-2-one] is 7.83; for `CC(=O)N(C)C1CCN(CC(=O)N2C[C@H](c3ccc(Cl)c(Cl)c3)[C@@H](N(C)Cc3ccc(C(F)(F)F)c(F)c3)C2)CC1` (racemic) [Example 147, N-[1-(2-{(3SR,4RS)-3-(3,4-Dichloro-phenyl)-4-[(3-fluoro-4-trifluoromethyl-benzyl)-methyl-amino]-pyrrolidin-1-yl}-2-oxo-ethyl)-piperidin-4-yl]-N-methyl-acetamide] it is 7.86. The same measure, in the same setting: next, `CN(Cc1ccc(C(F)(F)F)c(F)c1)[C@H]1CN(C(=O)C2CCN(C(=O)C3(C)CC3)CC2)C[C@@H]1c1ccc(Cl)c(Cl)c1` (racemic) [Example 149, {(3SR,4RS)-3-(3,4-Dichloro-phenyl)-4-[(3-fluoro-4-trifluoromethyl-benzyl)-methyl-amino]-pyrrolidin-1-yl}-[1-(1-methyl-cyclopropanecarbonyl)-piperidin-4-yl]-methanone]: 8.51; `CN(Cc1ccc(C(F)(F)F)c(F)c1)[C@H]1CN(C(=O)N2CCN(c3ncccc3C#N)CC2)C[C@@H]1c1ccc(Cl)c(Cl)c1` [Example 71, 2-(4-{(3S,4R)-3-(3,4-Dichloro-phenyl)-4-[(3-fluoro-4-trifluoromethyl-benzyl)-methyl-amino]-pyrrolidine-1-carbonyl}-piperazin-1-yl)-nicotinonitrile]: 7.87. The same measure, in the same setting: next, `COCCCCC(=O)N1C[C@H](c2ccc(Cl)c(Cl)c2)[C@@H](N(C)Cc2ccc(C(F)(F)F)c(F)c2)C1` [Example 99, 1-{(3S,4R)-3-(3,4-Dichloro-phenyl)-4-[(3-fluoro-4-trifluoromethyl-benzyl)-methyl-amino]-pyrrolidin-1-yl}-5-methoxy-pentan-1-one]: 7.44; `CN(Cc1ccc(C(F)(F)F)c(F)c1)[C@H]1CN(C(=O)CCN2CCOCC2)C[C@@H]1c1ccc(Cl)c(Cl)c1` [Example 110, 1-{(3S,4R)-3-(3,4-Dichloro-phenyl)-4-[(3-fluoro-4-trifluoromethyl-benzyl)-methyl-amino]-pyrrolidin-1-yl}-3-morpholin-4-yl-propan-1-one]: 7.57. For the molecule `CN(Cc1ccc(C(F)(F)F)c(F)c1)[C@H]1CN(C(=O)CN2CCS(=O)(=O)CC2)C[C@@H]1c1ccc(Cl)c(Cl)c1` [Example 135, 1-{(3S,4R)-3-(3,4-Dichloro-phenyl)-4-[(3-fluoro-4-trifluoromethyl-benzyl)-methyl-amino]-pyrrolidin-1-yl}-2-(1,1-dioxo-λ^6-thiomorpholin-4-yl)-ethanone], the pKi was 7.36.

The term pKi denotes the negative decadic logarithm of the Ki, by convention in mol/L.

The values are drawn from patent publication US8022099B2, “N-benzyl pyrrolidine derivatives” (Hoffmann-La Roche Inc., priority 2008, dated 2011).
